Assay results as given in PMC2929395 (Chemistry & biology, 2010).
Where a chain is given by its changes, count along the chain named.

Assays:
[1] = molecular target: T1, PanK3(R207A) (Homo sapiens, UniProt Q9H999, R207A); assay: TNP-ATP binding to PanK3
T1 sequence (Q9H999 1-370 R207A): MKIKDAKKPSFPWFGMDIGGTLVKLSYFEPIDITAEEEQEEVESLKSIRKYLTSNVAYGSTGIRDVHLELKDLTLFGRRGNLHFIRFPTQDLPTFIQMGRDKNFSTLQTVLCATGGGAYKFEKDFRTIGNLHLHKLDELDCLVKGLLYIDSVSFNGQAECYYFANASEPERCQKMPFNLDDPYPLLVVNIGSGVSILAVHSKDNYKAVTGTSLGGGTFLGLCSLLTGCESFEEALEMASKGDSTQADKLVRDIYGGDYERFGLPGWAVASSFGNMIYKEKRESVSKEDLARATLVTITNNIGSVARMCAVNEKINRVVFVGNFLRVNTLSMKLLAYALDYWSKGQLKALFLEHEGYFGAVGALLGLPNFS

[2] = molecular target: PanK3 (Homo sapiens, UniProt Q9H999); assay: TNP-ATP fluorescent ATP analog binding to PanK3
[3] = molecular target: T2, PanK3(A267F) (Homo sapiens, UniProt Q9H999, A267F); assay: TNP-ATP binding to PanK3
T2 sequence (Q9H999 1-370 A267F): T1 sequence (Q9H999 1-370 R207A) with A207R, A267F

[4] = molecular target: T3, PanK3(A269F) (Homo sapiens, UniProt Q9H999, A269F); assay: TNP-ATP binding to PanK3
T3 sequence (Q9H999 1-370 A269F): T1 sequence (Q9H999 1-370 R207A) with A207R, A269F

PanK3, sequence (Q9H999 whole entry): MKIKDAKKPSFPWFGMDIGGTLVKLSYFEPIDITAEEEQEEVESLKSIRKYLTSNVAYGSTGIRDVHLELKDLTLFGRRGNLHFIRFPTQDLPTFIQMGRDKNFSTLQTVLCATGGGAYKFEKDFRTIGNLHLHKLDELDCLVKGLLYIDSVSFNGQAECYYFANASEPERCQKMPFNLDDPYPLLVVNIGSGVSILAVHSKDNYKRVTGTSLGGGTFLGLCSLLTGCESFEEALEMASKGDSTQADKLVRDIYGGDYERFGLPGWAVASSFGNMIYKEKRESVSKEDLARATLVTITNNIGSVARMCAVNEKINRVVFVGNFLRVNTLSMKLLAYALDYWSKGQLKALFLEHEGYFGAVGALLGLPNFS

## Nc1ncnc2c1ncn2[C@@H]1O[C@H](COP(=O)(O)OP(=O)(O)OP(=O)(O)O)[C@H]2OC3(O[C@H]21)C([N+](=O)[O-])=CC(=[N+]([O-])[O-])C=C3[N+](=O)[O-] (stereo partly shown) [TNP-ATP]
[1]
  Kd: 3 ± 0.3 µM
[2]
  Kd: 3.6 ± 0.9 µM
[3]
  Kd: 3.1 ± 0.8 µM
[4]
  Kd: 5.4 ± 0.8 µM
